Test results from US11459586B2, “Methods for increasing efficiency of nuclease-mediated gene editing in stem cells” (President and Fellows of Harvard College, priority 2016, dated 2022).
Peptide text beside a SMILES is read from it. * marks the point of attachment. Cbz = O=C(OCc1ccccc1)*; CH2F = FC*

Key:
[1] = test system: human iPSC containing a doxycycline-inducible Cas9 nuclease; test: Cas9 nuclease toxicity in doxycycline-inducible Cas9 hiPSC (decline of CFP+EGFP+ cells); type: cell-based; settings: zVAD added
Excerpt: FIGS. 1A-C. Cas9 nuclease toxicity in human iPSC only occurs with sgRNAs that target the human genome. FIG. 1A. A human iPSC line containing a doxycycline-inducible Cas9 nuclease was infected with lentivirus that constitutively expresses CFP together with an sgRNA. Three days after infection, each culture was divided into several wells and treated with the indicated concentrations of doxycycline for up to 14 days. FIG. 1B. At the indicated time points, the percent of CFP^+ of live single cells was determined by flow cytometry. […] FIG. 1C. 14 days after doxycycline induction, iPSC infected with the Thy1 sgRNA were stained for expression of the Thy1 surface marker and analyzed by flow cytometry. The percent of Thy1-negative edited cells gated on the CFP^+ infected cells is shown for varying concentrations of doxycycline. Results are representative of three independent experiments.
FIGS. 2A-B. Nuclease-mediated toxicity in human iPSC can be rescued by overexpression of dominant negative p53 or anti-apoptotic Bcl-2 family members. FIG. 2A. […] At the indicated time points, the percent of CFP EGFP^+ iPSC was determined by flow cytometry. […]
FIG. 13. […] At the indicated time points, the percent of CFP^+EGFP^+ iPSC was determined by flow cytometry. […]

human iPSC = type: cell-based
Experimental: FIGS. 10A-F. Effect of Caspase and p38 MAPK inhibitors on survival and gene targeting of human iPSC. FIG. 10A and FIG. 10B. Mouse Thy1 gene targeting scheme. Human iPSC were nucleofected with the mThy1 targeting vector, Cas9 nuclease, and Thy1 sgRNA expressing plasmid or pUC19 empty vector. Nucleofected cells were evenly divided and plated onto plain media (mTeSR1+10 μM Y-27632 ROCK inhibitor), or media supplemented with the indicated chemical inhibitor. For specific caspase inhibitors, the principal caspase they target is noted in parentheses. […] FIG. 10C. Two days after nucleofection, viable cells were counted. Error bars indicate s.e.m. of technical duplicates. Lines mark the count levels for nucleofected cells in plain media with or without sgRNA. FIG. 10D. Five days after transfection, cells were analyzed by flow cytometry for mThy1 and hThy1 expression. The percent of mThy1^+hThy1^− (bottom of each bar) and mThy1^+hThy1^+ (top of each bar) cells of live single cells is indicated. Lines mark the levels for cells in plain media. […] FIG. 10E. FACS plots of human iPSC transfected with the mThy1 targeting vector, Cas9 nuclease, and Thy1 Left and Right sgRNAs. Cells were subsequently cultured for 5 days in plain media±50 μM zVAD and ±10 μM SB203580. FIG. 10F. Human iPSC cultures were single cell FACS sorted into 96-well tissue culture plates containing a MEF feeder layer and hES media supplemented with SMC4 inhibitors±50 μM zVAD for eight days. Ten days after sorting, the number of surviving iPSC colonies was counted (from 190 cells sorted). PGP1 hiPSC lines created using retroviral vectors or non-integrating methods were both tested.
Pluripotency of iPSC cultures was verified by flow cytometry staining using anti-human Tra-1/60 PE (TRA-1-60, BD) and anti-human Oct3/4 eFluor 660 (EM92, eBioscience) with the fixation buffer sold under the trademark BD CYTOFIX™ and permeabilization buffer sold under the trademark PHOSFLOW™ Perm/Wash buffers. Human g-band karyotype analysis was done by Cell Line Genetics. Viable cell counts were measured with the cell analyzer sold under the trademark MUSE® Count & Viability Assay kit (EMD Millipore). Anti-human HLA-A2 APC (BB7.2) and anti-human HLA-BC PE (B1.23.2) were purchased from eBioscience. Human iPSC cultures were treated with 50 ng/ml recombinant interferon gamma (eBioscience) for 2 days prior to HLA staining.
Plasmids were purified using the plasmid DNA purification kit sold under the trademark Qiagen ENDOFREE® Plasmid Maxi kit and nucleofected into iPSC cells using the Lonza 4D-Nucleofector X unit (Buffer P3, Program CB-150). For each 20 μl nucleofection reaction, 0.2-0.5×106 iPSC were transfected with up to 4 μg of plasmid DNA. Post-nucleofection, iPSC were plated onto solubilized basement membrane matrix secreted by Engelbreth-Holm-Swarm (EHS) mouse sarcoma cells sold under the trademark […]®-coated wells containing feeder-free cell culture medium sold under the trademark MTESR1™ media with 10 μM Y-27632 plus other chemical inhibitors when noted. Later experiments included 50 μM zVAD-fmk (Bachem) for 1 day and 10 μM SB203580 (Biovision) for 4-5 days post transfection (see FIGS. 5, 6, 11, and 12). For FIG. 6 (ssODN transfection), 200 ng/ml recombinant B 18R (eBioscience), was also added to the culture for 5 days post transfection.
The following inhibitors were added to the hiPSC culture at the concentrations and time periods indicated in the Examples below. • 1. p53 or Bax inhibitors: cyclic pifithrin α (StemCell Technologies); pifithrin (Tocris); peptide V5, peptide control, iMAC1 and iMAC2 (EMD Millipore); N-acetyl cysteine and 4-hydroxy TEMPO (TEMPOL) (Sigma). • 2.

CC(NC(=O)C(NC(=O)OCc1ccccc1)C(C)C)C(=O)NC(CC(=O)O)C(=O)CF (stereo not drawn) [zVAD] (Cbz-Val-Ala-Asp-CH2F; configuration not given here)
doxycycline-induced Cas9 nuclease toxicity [1]: did not affect | anoikis rescue (human iPSC; lower concentration, 25 μM): did not show as much anoikis rescue | rescue of hiPSC from cell death (anoikis) after nucleofection (human iPSC; viable cells two days after nucleofection, sgRNA plasmid or pUC19 control): rescued cells transfected with an sgRNA, and also those transfected with the pUC19 control
